The text below walks through data of ChEMBL document CHEMBL1148072, “Ellagitannins and complex tannins from Quercus petraea bark” (J Nat Prod, 1994).

The subject of one assay is Blood. The assay is described as follows: Astringency in human blood by heme-analysis relative to tannin. Type of assay: functional.
For another assay, the system named is Caenorhabditis elegans. The assay is described as follows: Anthelmintic activity against Caenorhabditis elegans. It is filed as functional, organism-based.

`O=C1OC[C@H]2OC(=O)c3cc(O)c(O)c(O)c3-c3c(O)c(O)c(O)c4c3C(=O)O[C@H]([C@@H]3OC(=O)c5c-4c(O)c(O)c(O)c5[C@@H]3c3c(O)cc(O)c4c3O[C@H](c3ccc(O)c(O)c3)[C@@H](O)C4)[C@H]2OC(=O)c2cc(O)c(O)c(O)c2-c2c1cc(O)c(O)c2O` [ACUTISSIMIN A] had an Activity in the assay on Blood of 0.28.
In turn, `O=C1OC[C@H]2OC(=O)c3cc(O)c(O)c(O)c3-c3c(O)c(O)c(O)c4c3C(=O)O[C@H]([C@@H]3OC(=O)c5c-4c(O)c(O)c(O)c5[C@@H]3c3c(O)cc(O)c4c3O[C@H](c3cc(O)c(O)c(O)c3)[C@@H](O)C4)[C@H]2OC(=O)c2cc(O)c(O)c(O)c2-c2c1cc(O)c(O)c2O` [EUGENIGRANDIN A] came in with an Activity in the assay on Blood of 0.46.
The same measure, in the same setting: with `O=C1OC[C@H]2OC(=O)c3cc(O)c(O)c(O)c3-c3c(O)c(O)c(O)c4c3C(=O)O[C@H]([C@@H]3OC(=O)c5c-4c(O)c(O)c(O)c5[C@@H]3c3c(O)cc4c(c3O)C[C@H](O)[C@@H](c3cc(O)c(O)c(O)c3)O4)[C@H]2OC(=O)c2cc(O)c(O)c(O)c2-c2c1cc(O)c(O)c2O` [GUAJAVIN B] the figure was 0.44.
`COC(=O)Nc1nc2cc(C(=O)c3ccccc3)ccc2[nH]1` [MEBENDAZOLE] displayed an IC50 in the assay on Caenorhabditis elegans of 10 ppm.
For the compound `O=C1OC[C@H]2OC(O)[C@@H]3OC(=O)c4cc(O)c(O)c(O)c4-c4c(cc(O)c(O)c4O)C(=O)O[C@H]3[C@@H]2OC(=O)c2cc(O)c(O)c(O)c2-c2c1cc(O)c(O)c2O` (stereo partly specified) [PEDUNCULAGIN], the Activity in the assay with Blood worked out at 0.2.
On the same count and under the same terms, the same measure for `O=C1OCC2OC(=O)c3cc(O)c(O)c(O)c3-c3c(O)c(O)c(O)c4c3C(=O)OC(C2OC(=O)c2cc(O)c(O)c(O)c2-c2c1cc(O)c(O)c2O)C1OC(=O)c2c-4c(O)c(O)c(O)c2C1O` (stereo unspecified) [VESCALAGIN]: 0.24.
